Among the data in ChEMBL document CHEMBL1147292, “The structure of ulithiacyclamide B. Antitumor evaluation of cyclic peptides and macrolides from Lissoclinum patella” (J Nat Prod, 1989) are Activity and IC50 values, retold here.

Test [1] can be described thus: Cytotoxicity against mouse Panc03 cells at 1.5 ug/disk by corbett disk diffusion assay. Format: functional. Background: Agar diffusion results depend on both activity and mobility in agar.
Test [2] deals with L1210. Description: Cytotoxicity against mouse L1210 cells at 0.15 ug/disk by corbett disk diffusion assay. Format: functional.
In test [3] the test system is L1210. Description: Cytotoxicity against mouse L1210 cells at 10 ug/disk by corbett disk diffusion assay. The class given is functional.
A short description of test [4]: Cytotoxicity against human H116 cells at 10 ug/disk by corbett disk diffusion assay. Format: functional.
Another test relates to KB. As to the kind of experiment: Cytotoxicity against human KB cells. Format: functional, cell-based.
Test [5] concerns MC-38. As to the kind of experiment: Cytotoxicity against mouse C38 cells at 10 ug/disk by corbett disk diffusion assay. Format: functional.
Test [6] can be described thus: Cytotoxicity against human H116 cells at 100 ug/disk by corbett disk diffusion assay. Format: functional.
Test [7] deals with L1210. Description: Cytotoxicity against mouse L1210 cells at 100 ug/disk by corbett disk diffusion assay. The class given is functional.
Test [8] deals with MC-38. Description: Cytotoxicity against mouse C38 cells at 100 ug/disk by corbett disk diffusion assay. The class given is functional.
Test [9] deals with MC-38. Description: Cytotoxicity against mouse C38 cells at 5 ug/disk by corbett disk diffusion assay. Format: functional.
Test [10] concerns L1210. Description: Cytotoxicity against mouse L1210 cells at 5 ug/disk by corbett disk diffusion assay. Format: functional.
Test [11] can be described thus: Cytotoxicity against human H116 cells at 5 ug/disk by corbett disk diffusion assay. The class given is functional.
For test [12], the system named is MC-38. Description: Cytotoxicity against mouse C38 cells at 200 ug/disk by corbett disk diffusion assay. The class given is functional.
Test [13] can be described thus: Cytotoxicity against human H116 cells at 200 ug/disk by corbett disk diffusion assay. Format: functional.
Test [14] deals with L1210. As to the kind of experiment: Cytotoxicity against mouse L1210 cells at 200 ug/disk by corbett disk diffusion assay. The class given is functional.
Test [15] has as its system MC-38. As to the kind of experiment: Cytotoxicity against mouse C38 cells at 1.5 ug/disk by corbett disk diffusion assay. Format: functional.
For test [16], the system named is L1210. As to the kind of experiment: Cytotoxicity against mouse L1210 cells at 1.5 ug/disk by corbett disk diffusion assay. Format: functional.

Molecules are shown by their SMILES. Values after ≈ are worked out from the molar mass of the structure shown. A value given as a limit tells only on which side of the number the result lay.

Take `Nc1ccn([C@@H]2O[C@H](CO)[C@@H](O)[C@@H]2O)c(=O)n1` [CYTARABINE]: the Activity in [1] worked out at 0 Zone units; in the test on L1210 [2], 550 Zone units.
As a reminder, the IC50 is the concentration that gives 50% inhibition. Lower therefore signals greater potency. Take `CC(C)C[C@H]1NC(=O)[C@H]2N=C(O[C@@H]2C)[C@H]2CSSC[C@@H](NC(=O)c3csc1n3)C1=N[C@H](C(=O)N[C@H](Cc3ccccc3)c3nc(cs3)C(=O)N2)[C@@H](C)O1` [ULITHIACYCLAMIDE B]: the Activity with L1210 [3] amounted to 270 Zone units; in test [4] it was 280 Zone units; with MC-38 [5], 290 Zone units. The compound further displayed an IC50 with KB of 0.017 µg/mL (≈ 0.0213 µM).
Regarding `CC[C@H](C)[C@@H]1NC(=O)c2csc(n2)[C@@H](C(C)C)NC(=O)[C@H]2N=C(O[C@@H]2C)[C@H]([C@@H](C)CC)NC(=O)c2csc(n2)[C@@H](C(C)C)NC(=O)[C@@H]2COC1=N2` [PATELLAMIDE A], the Activity is 0 Zone units in test [6], 150 Zone units with L1210 [7] and 160 Zone units in the test on MC-38 [8]. Moreover, the IC50 in the test on KB amounted to 3 µg/mL (≈ 4.04 µM).
In the case of `CCC(C)OC(=O)C1(C)CCC(C)CC(O)C(C)C(=O)C(C)/C=C\CC(C)C(O)C(O)C(OC)/C(C)=C/C=C/C(C)C(C(C)(O)/C=C(/C)Cc2csc(C3(C)OC3C)n2)OC1=O` (centres undefined) [PATELLAZOLE A], the Activity stood at 320 Zone units in the test on MC-38 [9], 240 Zone units in the test with L1210 [10] and 370 Zone units in test [11]. The IC50 in the test on KB is 0.01 µg/mL (≈ 0.0113 µM).
For `CC[C@H](C)[C@@H]1NC(=O)c2csc(n2)[C@@H](C)NC(=O)[C@H]2N=C(O[C@@H]2C)[C@H](C(C)C)NC(=O)c2csc(n2)[C@@H](Cc2ccccc2)NC(=O)[C@H]2N=C1O[C@@H]2C` [PATELLAMIDE C], the Activity in the test on MC-38 [12] worked out at 170 Zone units; in [13], 0 Zone units; in the test with L1210 [14] it was 260 Zone units. Inhibition in the test with KB was half-maximal at 6 µg/mL (≈ 7.86 µM) (IC50).
For the compound `CC[C@H](C)[C@@H]1NC(=O)c2csc(n2)[C@@H](C)NC(=O)[C@H]2N=C(O[C@@H]2C)[C@H](CC(C)C)NC(=O)c2csc(n2)[C@@H](Cc2ccccc2)NC(=O)[C@H]2N=C1O[C@@H]2C` [PATELLAMIDE B], the Activity stood at 0 Zone units in test [6], 50 Zone units with L1210 [7] and 150 Zone units with MC-38 [8]. Moreover, the IC50 in the test on KB was greater than 4 µg/mL.
Turning to `COC1/C(C)=C/C=C/C(C)C(C(C)(O)/C=C(/C)Cc2csc(C3(C)OC3C)n2)OC(=O)C(C)(C(=O)OC(C)C(C)O)CCC(C)CC(O)C(C)C(=O)C(C)/C=C\CC(C)C(O)C1O` (centres undefined) [PATELLAZOLE B], the figures for the Activity (in the test on MC-38 [9]; with L1210 [10]; in test [11]) were 460 Zone units, 300 Zone units and 460 Zone units, respectively. In addition, the IC50 with KB stood at 0.0003 µg/mL (≈ 0.000332 µM).
`CC(C)C[C@H]1NC(=O)[C@H]2N=C(O[C@@H]2C)[C@H]2CSSC[C@@H](NC(=O)c3csc1n3)C1=N[C@H](C(=O)N[C@H](CC(C)C)c3nc(cs3)C(=O)N2)[C@@H](C)O1` [ULITHIACYCLAMIDE] returned an IC50 in the test on KB of 0.035 µg/mL (≈ 0.0459 µM).
For `O=c1[nH]cc(F)c(=O)[nH]1` [FLUOROURACIL], the Activity is reported as 800 Zone units in the test with MC-38 [15] and 0 Zone units with L1210 [16].
